Test results taken from the supplement of paper PMC10307832.

Legend:
Test in all cases: relative viability (nuclei count vs DMSO), 5 days (fraction); higher = more cells survive
[1] = compound: CN(C)CC1=CC(=CC=C1)N=C(C2=CC=CC=C2)C3=C(NC4=C3C=CC(=C4)C(=O)N(C)C)O + COc1cc2c(Oc3ccc(NC(=O)C4(C(=O)Nc5ccc(F)cc5)CC4)cc3F)ccnc2cc1OCCCN1CCOCC1 [Foretinib] (partner 0.25 µM)
Procedure, shortened: (§1)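 Lung cancer cell lines in 1536-well plates got either a single drug or a fixed anchor-drug dose together with five library-drug doses (not always all listed) in √10 steps, by pin tool, on the day after seeding. Nuclei were counted after 5 days, and relative viability is the treated-to-vehicle ratio of nuclei counts. Values are medians of duplicate plates.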

[2] = compound: CN(C)CC1=CC(=CC=C1)N=C(C2=CC=CC=C2)C3=C(NC4=C3C=CC(=C4)C(=O)N(C)C)O + Nc1nc2[nH]cc(CCc3ccc(C(=O)N[C@@H](CCC(=O)O)C(=O)O)cc3)c2c(=O)[nH]1 [Pemetrexed] (partner 0.2 µM)
Procedure, shortened: as §1

[3] = compound: CN(C)CC1=CC(=CC=C1)N=C(C2=CC=CC=C2)C3=C(NC4=C3C=CC(=C4)C(=O)N(C)C)O + COc1cccc2cc(-c3nc([C@H]4CC[C@H](C(=O)O)CC4)n4ncnc(N)c34)[nH]c12 [OSI-027] (partner 0.5 µM)
Procedure, shortened: as §1

[4] = compound: CN(C)CC1=CC(=CC=C1)N=C(C2=CC=CC=C2)C3=C(NC4=C3C=CC(=C4)C(=O)N(C)C)O + NC(=O)Nc1cc(-c2cccc(F)c2)sc1C(=O)N[C@H]1CCCNC1 [AZD7762] (partner 0.2 µM)
Procedure, shortened: as §1

Cell Line	relative viability ([1]; first compound 0.08 µM)	relative viability ([1]; first compound 0.253 µM)	relative viability ([1]; first compound 0.8 µM)	relative viability ([1]; first compound 2.53 µM)	relative viability ([1]; first compound 8 µM)	relative viability ([2]; first compound 0.08 µM)	relative viability ([2]; first compound 0.253 µM)	relative viability ([2]; first compound 0.8 µM)	relative viability ([2]; first compound 2.53 µM)	relative viability ([2]; first compound 8 µM)	relative viability ([3]; first compound 0.08 µM)	relative viability ([3]; first compound 0.253 µM)	relative viability ([3]; first compound 0.8 µM)	relative viability ([3]; first compound 2.53 µM)	relative viability ([3]; first compound 8 µM)	relative viability ([4]; first compound 0.08 µM)	relative viability ([4]; first compound 0.253 µM)	relative viability ([4]; first compound 0.8 µM)	relative viability ([4]; first compound 2.53 µM)	relative viability ([4]; first compound 8 µM)
HCC-78	0.564	0.582	0.472	0.61	0.547	0.639	0.873	0.857	0.918	0.859	0.394	0.406	0.508	0.406	0.377	0.464	0.772	0.568	0.639	0.831
NCI-H2347	0.969	1.02	0.809	1.11	1	0.405	0.461	0.418	0.42	0.43	0.444	0.525	0.407	0.471	0.703	0.898	0.647	0.7	0.719	0.734
NCI-H838	1.13	0.969	1	0.888	0.938	0.247	0.243	0.23	0.213	0.253	0.347	0.469	0.513	0.417	0.354	0.951	0.928	0.948	0.831	0.903
201T	1.12	1.01	1.07	0.957	0.774	0.355	0.382	0.347	0.331	0.315	0.737	0.736	0.762	0.586	0.584	0.675	0.6	0.627	0.607	0.525
NCI-H358	0.696	0.808	0.515	0.585	0.506	0.176	0.173	0.165	0.164	0.175	0.824	0.706	0.633	0.671	0.549	0.635	0.463	0.419	0.471	0.485
NCI-H1666	1.03	1.01	1	1	1.11	0.774	0.909	0.825	0.886	1.01	0.858	0.851	0.889	0.831	1.05	0.908	0.857	0.847	0.764	0.852
LXF-289	0.966	0.9	1.03	0.93	0.929	0.937	0.836	0.904	0.885	0.827	0.769	0.731	0.707	0.713	0.639	1.12	1.05	1.11	0.894	1.08
LC-2-ad	0.993	0.881	0.884	0.919	0.969	0.275	0.263	0.275	0.288	0.277	0.935	0.73	0.867	0.732	0.614	0.842	0.819	0.812	0.829	0.867
LCLC-103H	0.746	0.826	0.825	0.841	0.508	0.47	0.442	0.555	0.458	0.456	0.452	0.538	0.493	0.493	0.452	0.686	0.838	0.794	0.666	0.645
NCI-H1993	0.721	0.811	0.81	0.824	0.935	0.684	0.576	–	0.495	0.634	0.529	0.581	0.567	0.531	0.598	0.59	0.705	–	0.937	0.877
NCI-H441	1.11	1.01	1.24	1.17	0.873	0.264	0.274	0.237	0.258	0.291	0.522	0.703	0.74	0.568	0.39	1.19	1.06	1	1.2	1.06
EKVX	0.88	1.06	0.555	0.776	0.804	0.41	0.362	–	0.396	0.418	0.718	0.726	0.781	0.764	0.739	0.745	0.727	–	0.726	0.696
NCI-H1437	1.3	1.22	1.35	1.27	1.33	0.297	0.294	0.287	0.283	0.285	1.02	0.917	0.983	0.877	0.942	1.19	1.16	1.16	1.03	1.12
PC-3 [JPC-3]	1.06	1.09	0.916	1.03	1.06	1.08	1.04	0.665	1.08	1.28	0.718	0.792	0.73	0.802	0.746	0.872	0.938	0.753	0.806	1.02
NCI-H650	1.16	1.08	0.988	0.846	1.07	0.933	1.14	1.15	0.979	0.831	0.529	0.561	0.583	0.507	0.42	1.4	0.938	1.16	0.897	0.855
NCI-H1975	0.863	0.984	0.888	0.88	0.78	0.292	0.327	0.287	0.301	0.31	0.747	0.0592	0.675	0.747	0.585	0.756	0.761	0.68	0.692	0.707

Cell Line	relative viability ([1]; first compound 0.08 µM)	relative viability ([1]; first compound 0.253 µM)	relative viability ([1]; first compound 0.8 µM)	relative viability ([1]; first compound 2.53 µM)	relative viability ([1]; first compound 8 µM)	relative viability ([2]; first compound 0.08 µM)	relative viability ([2]; first compound 0.253 µM)	relative viability ([2]; first compound 0.8 µM)	relative viability ([2]; first compound 2.53 µM)	relative viability ([2]; first compound 8 µM)	relative viability ([3]; first compound 0.08 µM)	relative viability ([3]; first compound 0.253 µM)	relative viability ([3]; first compound 0.8 µM)	relative viability ([3]; first compound 2.53 µM)	relative viability ([3]; first compound 8 µM)	relative viability ([4]; first compound 0.08 µM)	relative viability ([4]; first compound 0.253 µM)	relative viability ([4]; first compound 0.8 µM)	relative viability ([4]; first compound 2.53 µM)	relative viability ([4]; first compound 8 µM)
ChaGo-K-1	0.945	0.911	1.04	0.902	0.771	0.251	0.267	0.259	0.258	0.265	0.584	0.582	0.609	0.588	0.527	0.832	0.824	0.902	0.822	0.896
CAL-12T	1.09	1.22	1.44	0.864	1.29	1.17	1.22	1.14	1.34	1.25	0.736	0.746	0.686	0.849	0.527	0.627	0.668	0.58	0.647	0.687
NCI-H3122	0.995	0.983	1.01	1.02	0.966	0.19	0.207	0.196	0.191	0.186	1.01	0.962	1.41	1.06	0.933	1.01	0.967	1.03	1.02	1.07
LU99A	0.787	0.842	0.926	0.809	0.781	0.171	0.173	0.228	0.156	0.185	0.245	0.346	0.341	0.297	0.286	0.45	0.335	0.337	0.24	0.299
EPLC-272H	0.654	0.776	0.534	0.681	0.51	0.355	0.345	0.284	0.314	0.398	0.312	0.37	0.264	0.258	0.283	0.229	0.252	0.203	0.302	0.214
BEN	0.705	0.68	0.641	0.68	0.596	0.778	0.79	0.707	0.78	0.795	0.286	0.31	0.25	0.306	0.289	0.701	0.71	0.695	0.728	0.745
NCI-H1755	0.941	0.903	0.989	0.874	0.918	0.351	0.404	0.371	0.364	0.423	0.707	0.7	0.798	0.773	0.622	0.374	0.383	0.481	0.452	0.411
NCI-H2405	1.04	1.08	1.01	0.992	1.04	1.2	1.07	0.936	1.08	0.828	0.629	0.653	0.618	0.57	0.544	0.715	0.72	0.713	0.659	0.681
NCI-H647	1.26	1.1	1.12	1.15	1	0.179	0.181	0.147	0.172	0.181	0.711	0.772	0.754	0.461	0.539	0.513	0.483	0.463	0.48	0.445
H3255	0.857	0.857	0.631	1.04	0.848	0.592	0.52	0.543	0.592	0.592	0.649	0.592	0.698	0.682	0.632	1.08	0.85	0.842	0.967	0.942
LOU-NH91	0.931	0.882	0.732	0.917	0.936	0.383	0.367	0.465	0.349	0.465	0.691	0.713	0.561	0.762	0.689	0.762	0.801	0.713	0.719	0.703
NCI-H322M	0.887	1.02	0.831	0.831	0.666	0.556	0.6	0.612	0.565	0.527	0.581	0.562	0.555	0.499	0.475	0.53	0.599	0.53	0.448	0.588
HCC-366	0.903	0.889	0.888	0.83	0.85	0.141	0.17	0.265	0.164	0.25	0.999	1.1	0.971	0.878	0.414	0.303	0.252	0.248	0.157	0.315
NCI-H1944	0.888	0.923	0.877	0.86	0.785	0.607	0.571	0.615	0.512	0.537	0.447	0.491	0.4	0.355	0.348	0.56	0.576	0.419	0.525	0.434
HCC-15	1.01	1.02	1.1	0.99	1	0.232	0.22	0.208	0.235	0.226	0.705	0.692	0.77	0.6	0.719	1.44	1.2	1.24	1.4	1.31
NCI-H1651	0.865	0.777	0.87	0.735	0.816	0.565	0.564	0.639	0.558	0.668	0.846	0.874	0.731	0.645	0.783	0.483	0.474	0.414	0.435	0.397
